Reference: patent US20230131899A1, “INHIBITORS OF MICROBIALLY INDUCED AMYLOID” (Axial Therapeutics, Inc., priority 2020, published 2023)
Where two headings read alike, the source gives them in different places.

Target: T1, E. coli CsgA (Escherichia coli, UniProt P28307)
T1 construct: made in house; host or cells: E. coli NEB 3016 slyD::kan, pET11d
Experiment: In vitro ThioflavinT assay of CsgA aggregation (CsgA ThT Assay)
Type: biochemical
Conditions: CsgA 2 μM, white plates; for remaining activity at 25 µM: compound 25 μM; for remaining activity at 100 µM: compound 100 μM
How it was run: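 Purified C-terminal His-tagged CsgA, monomerised by desalting and 30-kDa filtration, at 2-20 μM with 20-40 μM ThT in 50 mM potassium phosphate pH 7.3, 1% DMSO, compounds 3.125-200 uM; room temperature, fluorescence (ex 438/em 495 nm) read every 15 min. Background-subtracted signal expressed as percent inhibition versus vehicle at 6-6.5 or 8-9 h, or as percent control AUC.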

[1] = read-out: CsgA ThT Assay (2 μM CsgA) % Control Bmax 25 μM, activity range, class symbol
[2] = read-out: CsgA ThT Assay (2 μM CsgA) % Control Bmax 25 μM, mean Bmax as percentage of DMSO control
[3] = read-out: CsgA ThT Assay (2 μM CsgA) % Control Bmax 100 μM, activity range, class symbol
[4] = read-out: CsgA ThT Assay (2 μM CsgA) % Control Bmax 100 μM, mean Bmax as percentage of DMSO control

T1 sequence (P28307 23-151): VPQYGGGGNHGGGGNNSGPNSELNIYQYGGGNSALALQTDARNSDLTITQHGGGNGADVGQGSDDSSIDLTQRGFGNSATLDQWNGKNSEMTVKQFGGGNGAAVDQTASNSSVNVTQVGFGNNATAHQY

Row | SMILES | remaining activity at 25 µM [1] [%] | remaining activity at 25 µM [2] [%] | remaining activity at 100 µM [3] [%] | remaining activity at 100 µM [4] [%]
1 | O=C(O)C1CN(Cc2cccnc2)c2c(-c3cccc(C(F)(F)F)c3)c(Cc3cccc4ccccc34)c(Cl)c(=O)n21 (centres unmarked) [Compound 169, 6-chloro-7-(naphthalen-1-ylmethyl)-5-oxo-1-(pyridin-3-ylmethyl)-8-(3-(trifluoromethyl)phenyl)-1,2,3,5-tetrahydroimidazo[1,2-a]pyridine-3-carboxylic acid] | > 60 | 77 | > 60 | 64
2 | O=C(O)C1CN(Cc2ccc(CO)cc2)c2c(-c3cccc(C(F)(F)F)c3)c(Cc3cccc4ccccc34)c(Cl)c(=O)n21 (centres unmarked) [Compound 170, 6-chloro-1-(4-(hydroxymethyl)benzyl)-7-(naphthalen-1-ylmethyl)-5-oxo-8-(3-(trifluoromethyl)phenyl)-1,2,3,5-tetrahydroimidazo[1,2-a]pyridine-3-carboxylic acid] | > 60 | 62 | 31 to 60 | 38
3 | CCCN1CC(C(=O)O)n2c(c(-c3cccc(C(F)(F)F)c3)c(Cc3cccc4ccccc34)c(C(N)=O)c2=O)S1(=O)=O (centres unmarked) [Compound 172, 7-carbamoyl-8-(naphthalen-1-ylmethyl)-6-oxo-2-propyl-9-(3-(trifluoromethyl)phenyl)-3,4-dihydro-2H,6H-pyrido[1,2-e][1,2,5]thiadiazine-4-carboxylic acid 1,1-dioxide] | 11 to 31 | 26 | 11 to 31 | 17
4 | CN(C)C(=O)c1c(Cc2cccc3ccccc23)c(-c2cccc(C(F)(F)F)c2)c2n(c1=O)C(C(=O)O)CN(C)S2(=O)=O (centres unmarked) [Compound 173, 7-(dimethylcarbamoyl)-2-methyl-8-(naphthalen-1-ylmethyl)-6-oxo-9-(3-(trifluoromethyl)phenyl)-3,4-dihydro-2H,6H-pyrido[1,2-e] [1,2,5] thiadiazine-4-carboxylic acid 1,1-dioxide] | > 60 | 73 | 31 to 60 | 40
5 | O=C(O)C1CN(Cc2ccncc2)c2c(-c3cccc(C(F)(F)F)c3)c(Cc3cccc4ccccc34)c(Cl)c(=O)n21 (centres unmarked) [Compound 174, 6-chloro-7-(naphthalen-1-ylmethyl)-5-oxo-1-(pyridin-4-ylmethyl)-8-(3-(trifluoromethyl)phenyl)-1,2,3,5-tetrahydroimidazo[1,2-a]pyridine-3-carboxylic acid] | > 60 | 77 | 31 to 60 | 60
6 | CC(C)N1CC(C(=O)O)n2c(c(-c3cccc(C(F)(F)F)c3)c(Cc3cccc4ccccc34)c(C(N)=O)c2=O)S1(=O)=O (centres unmarked) [Compound 175, 7-carbamoyl-2-isopropyl-8-(naphthalen-1-ylmethyl)-6-oxo-9-(3-(trifluoromethyl)phenyl)-3,4-dihydro-2H,6H-pyrido[1,2-e][1,2,5]thiadiazine-4-carboxylic acid 1,1-dioxide] | 31 to 60 | 33 | 11 to 31 | 24
7 | NC(=O)c1c(Cc2cccc3ccccc23)c(-c2cccc(C(F)(F)F)c2)c2n(c1=O)C(C(=O)O)CN(C1CCCC1)S2(=O)=O (centres unmarked) [Compound 176, 7-carbamoyl-2-cyclopentyl-8-(naphthalen-1-ylmethyl)-6-oxo-9-(3-(trifluoromethyl)phenyl)-3,4-dihydro-2H,6H-pyrido[1,2-e][1,2,5]thiadiazine-4-carboxylic acid 1,1-dioxide] | 11 to 31 | 25 | 11 to 31 | 24
8 | CCCCN1CC(C(=O)O)n2c(c(-c3cccc(C(F)(F)F)c3)c(Cc3cccc4ccccc34)c(C(N)=O)c2=O)S1(=O)=O (centres unmarked) [Compound 177, 2-butyl-7-carbamoyl-8-(naphthalen-1-ylmethyl)-6-oxo-9-(3-(trifluoromethyl)phenyl)-3,4-dihydro-2H,6H-pyrido[1,2-e][1,2,5]thiadiazine-4-carboxylic acid 1,1-dioxide] | 31 to 60 | 32 | 11 to 31 | 21
9 | O=C(O)C1CN(CCc2ccccc2)c2c(-c3cccc(C(F)(F)F)c3)c(Cc3cccc4ccccc34)c(Cl)c(=O)n21 (centres unmarked) [Compound 178, 6-chloro-7-(naphthalen-1-ylmethyl)-5-oxo-1-phenethyl-8-(3-(trifluoromethyl)phenyl)-1,2,3,5-tetrahydroimidazo[1,2-a]pyridine-3-carboxylic acid] | 31 to 60 | 57 | < 10 | 9
10 | CC(C)N1CC(C(=O)O)n2c1c(-c1cccc(C(F)(F)F)c1)c(Cc1cccc3ccccc13)c(Cl)c2=O (centres unmarked) [Compound 179, 6-chloro-1-isopropyl-7-(naphthalen-1-ylmethyl)-5-oxo-8-(3-(trifluoromethyl)phenyl)-1,2,3,5-tetrahydroimidazo[1,2-a]pyridine-3-carboxylic acid] | > 60 | 65 | 31 to 60 | 48
11 | O=C(O)C1CN(CC2CCCCC2)c2c(-c3cccc(C(F)(F)F)c3)c(Cc3cccc4ccccc34)c(Cl)c(=O)n21 (centres unmarked) [Compound 180, 6-chloro-1-(cyclohexylmethyl)-7-(naphthalen-1-ylmethyl)-5-oxo-8-(3-(trifluoromethyl)phenyl)-1,2,3,5-tetrahydroimidazo[1,2-a]pyridine-3-carboxylic acid] | > 60 | 65 | 11 to 31 | 21
12 | O=C(O)C1CN(Cc2ccccc2CO)c2c(-c3cccc(C(F)(F)F)c3)c(Cc3cccc4ccccc34)c(Cl)c(=O)n21 (centres unmarked) [Compound 181, 6-chloro-1-(2-(hydroxymethyl)benzyl)-7-(naphthalen-1-ylmethyl)-5-oxo-8-(3-(trifluoromethyl)phenyl)-1,2,3,5-tetrahydroimidazo[1,2-a]pyridine-3-carboxylic acid] | 31 to 60 | 57 | 31 to 60 | 40
13 | O=C(O)C1CN(CC2CCOCC2)c2c(-c3cccc(C(F)(F)F)c3)c(Cc3cccc4ccccc34)c(Cl)c(=O)n21 (centres unmarked) [Compound 182, 6-chloro-7-(naphthalen-1-ylmethyl)-5-oxo-1-((tetrahydro-2H-pyran-4-yl)methyl)-8-(3-(trifluoromethyl)phenyl)-1,2,3,5-tetrahydroimidazo[1,2-a]pyridine-3-carboxylic acid] | > 60 | 68 | > 60 | 61
14 | NC(=O)c1c(Cc2cccc3ccccc23)c(-c2cccc(C(F)(F)F)c2)c2n(c1=O)C(C(=O)O)CN(CCCO)S2(=O)=O (centres unmarked) [Compound 184, 7-carbamoyl-2-(3-hydroxypropyl)-8-(naphthalen-1-ylmethyl)-6-oxo-9-(3-(trifluoromethyl)phenyl)-3,4-dihydro-2H,6H-pyrido[1,2-e][1,2,5]thiadiazine-4-carboxylic acid 1,1-dioxide] | 31 to 60 | 45 | 11 to 31 | 22
15 | O=C(O)C1CN(Cc2ccccc2)c2c(-c3cccc(C(F)(F)F)c3)c(Cc3cccc4ccccc34)cc(=O)n21 (centres unmarked) [Compound 187, 1-benzyl-7-(naphthalen-1-ylmethyl)-5-oxo-8-(3-(trifluoromethyl)phenyl)-1,2,3,5-tetrahydroimidazo[1,2-a]pyridine-3-carboxylic acid] | > 60 | 69 | > 60 | 74
16 | O=C(O)C1CN(CCCCCCCN2CC(C(=O)O)n3c2c(-c2cccc(C(F)(F)F)c2)c(Cc2cccc4ccccc24)c(Cl)c3=O)c2c(-c3cccc(C(F)(F)F)c3)c(Cc3cccc4ccccc34)c(Cl)c(=O)n21 (centres unmarked) [Compound 188, 1,1′-(heptane-1,7-diyl)bis(6-chloro-7-(naphthalen-1-ylmethyl)-5-oxo-8-(3-(trifluoromethyl)phenyl)-1,2,3,5-tetrahydroimidazo[1,2-a]pyridine-3-carboxylic acid)] | 31 to 60 | 33 | 11 to 31 | 14
17 | COc1ccc(CN2CC(C(=O)O)n3c2c(-c2cccc(C(F)(F)F)c2)c(Cc2cccc4ccccc24)c(Cl)c3=O)cc1 (centres unmarked) [Compound 192, 6-chloro-1-(4-methoxybenzyl)-7-(naphthalen-1-ylmethyl)-5-oxo-8-(3-(trifluoromethyl)phenyl)-1,2,3,5-tetrahydroimidazo[1,2-a]pyridine-3-carboxylic acid] | > 60 | 87 | > 60 | 95
